Experimental data as given in patent EP4786486A1, “PEPTIDES FOR TREATING CARDIAC DISEASES” (Universidad Complutense De Madrid, priority 2023, dated 2025).
Where no end group is shown, it is not given here.

What was measured:
[1] = tested on: human minimal promoter of the KCNJ2 gene; test: Luciferase assay in hEK-293 cells, minimal promoter of KCNJ2; format: cell-based; conditions: hEK-293, co-transfected with cDNA SEQ ID NO: 5, 48 hours
Procedure: 48 hours after transfection, luciferase assays were performed using the LightSwitch Luciferase Assay reagent, also from Active Motif, and a Berthold luminometer. All assays were performed in triplicate and each point represents the mean of each technical triplicate.

[2] = tested on: dissociated cardiomyocytes from Sham and TAC mice; test: INa density in dissociated cardiomyocytes, murine TAC model of HFrEF; format: in vivo; conditions: pre-treatment with DECA-11 (AAV9)
Excerpt: A murine model of CI with reduced ejection fraction (HFrEF) was used to analyse the effect of SEQ ID NO: 3 on the decrease in INa and IK1 caused by electrical remodelling associated with Cl. The mice are subjected to transverse aortic constriction (TAC) with ligation, and pressure overload leads to the occurrence of cardiac hypertrophy and Cl. The mice were produced at the Medical Research Centre of the University of Navarra (CIMA), under the direction of Dr Aránzazu González Miqueo.
Eight-week-old mice were administered 3.5×10^10 particles of adeno-associated virus type 9 that encoded either the fluorescent reporter td-Tomato (Aav-dt-T) alone, or the reporter and the peptide DECA-11. At 12 weeks of age, an echocardiographic check-up (baseline) was performed and at week 13 they underwent surgery in which the aorta was ligated (TAC animals) or not (Sham animals).
That same week they were sent to the UCM animal facility. Next, the mice were heparinised and anaesthetised and then sacrificed by cervical dislocation, at a rate of one per day, and a thoracotomy was performed to remove the heart which was mounted through the aorta into a cannula connected to a Langendorff apparatus for enzymatic dissociation of the cardiac myocytes. […]

[3] = tested on: human iPSC-derived cardiomyocytes; test: IK1 density in hiPSC-CM infected with AAV9 encoding the peptide, patch-clamp; format: cell-based; conditions: hiPSC-CM infected 48 hours with AAV9 encoding DECA-11; vs. Ad-td-Tomato infected cardiomyocytes; P<0.05

Row | Sequence | effect on the minimal promoter of the human KCNJ2 gene [1] | density of INa ([2]; TAC cardiomyocytes) | density of INa ([2]; cardiomyocytes from Sham animals) | density of IK1 [3]
1 | RFTRESLAAIE [DECA-11, RFTRESLAAIE] | protranscriptional effect |  |  | 
2 | RFTRESLAAIE (listed as Homo sapiens) [SEQ ID NO: 3, 11-amino acid peptide, amino acids 15-25 of human Nav1.5] |  | significantly and markedly increased | increased | significantly increase
